Assay results from PubChem BioAssay (NCI).
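Each compound was tested at five concentrations against cells in 96-well plates for 48 hours. TGI is the concentration that stops growth completely.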

What was measured:
Test in all cases: NCI-60 cell line screen, 48 h
NCI-H226 lung = tested on: NCI-H226 lung
COLO 205 colon = tested on: COLO 205 colon
SF-539 CNS = tested on: SF-539 CNS
NCI-H522 lung = tested on: NCI-H522 lung
IGROV1 ovarian = tested on: IGROV1 ovarian
CAKI-1 renal = tested on: CAKI-1 renal
OVCAR-4 ovarian = tested on: OVCAR-4 ovarian
OVCAR-5 ovarian = tested on: OVCAR-5 ovarian
MDA-N = tested on: MDA-N
786-0 renal = tested on: 786-0 renal
PC-3 prostate = tested on: PC-3 prostate
LOX IMVI melanoma = tested on: LOX IMVI melanoma
SK-OV-3 ovarian = tested on: SK-OV-3 ovarian
MALME-3M melanoma = tested on: MALME-3M melanoma
MDA-MB-435 = tested on: MDA-MB-435
SK-MEL-5 melanoma = tested on: SK-MEL-5 melanoma
RPMI-8226 leukemia = tested on: RPMI-8226 leukemia
NCI-H23 lung = tested on: NCI-H23 lung
EKVX NSCLC = tested on: EKVX NSCLC
K-562 leukemia = tested on: K-562 leukemia
UO-31 renal = tested on: UO-31 renal
CCRF-CEM leukemia = tested on: CCRF-CEM leukemia
SK-MEL-28 melanoma = tested on: SK-MEL-28 melanoma
MDA-MB-231 breast = tested on: MDA-MB-231 breast
NCI/ADR-RES ovarian = tested on: NCI/ADR-RES ovarian
UACC-62 melanoma = tested on: UACC-62 melanoma
A549 NSCLC = tested on: A549 NSCLC
SW-620 colon = tested on: SW-620 colon
HOP-62 NSCLC = tested on: HOP-62 NSCLC
UACC-257 melanoma = tested on: UACC-257 melanoma
SK-MEL-2 melanoma = tested on: SK-MEL-2 melanoma
U251 CNS = tested on: U251 CNS
OVCAR-8 ovarian = tested on: OVCAR-8 ovarian
HT29 colon = tested on: HT29 colon
NCI-H460 lung = tested on: NCI-H460 lung
HOP-92 NSCLC = tested on: HOP-92 NSCLC
A498 renal = tested on: A498 renal
SF-268 CNS = tested on: SF-268 CNS
HCT-116 colon = tested on: HCT-116 colon
SR leukemia = tested on: SR leukemia
MOLT-4 leukemia = tested on: MOLT-4 leukemia
HCT-15 colon = tested on: HCT-15 colon
RXF 393 renal = tested on: RXF 393 renal
HS 578T breast = tested on: HS 578T breast
DU-145 prostate = tested on: DU-145 prostate
SF-295 CNS = tested on: SF-295 CNS
TK-10 renal = tested on: TK-10 renal
HCC-2998 colon = tested on: HCC-2998 colon
SNB-19 CNS = tested on: SNB-19 CNS
SNB-75 CNS = tested on: SNB-75 CNS
KM12 colon = tested on: KM12 colon
T-47D breast = tested on: T-47D breast
SN12C renal = tested on: SN12C renal
ACHN renal = tested on: ACHN renal
HL-60(TB) leukemia = tested on: HL-60(TB) leukemia
OVCAR-3 ovarian = tested on: OVCAR-3 ovarian
MCF7 breast = tested on: MCF7 breast
M14 melanoma = tested on: M14 melanoma
BT-549 breast = tested on: BT-549 breast

SMILES: N=C1N(/N=C/c2ccccn2)C(=Nc2ccccc2)C(=S)N1c1ccccc1
- TGI (NCI-H226 lung): 32.9 µM
- TGI (COLO 205 colon): 5.36 µM
- TGI (SF-539 CNS): 15.8 µM
- TGI (NCI-H522 lung): 3.72 µM
- TGI (IGROV1 ovarian): 18.8 µM
- TGI (CAKI-1 renal): 20 µM
- TGI (OVCAR-4 ovarian): 23.9 µM
- TGI (OVCAR-5 ovarian): 17.5 µM
- TGI (MDA-N): 11.8 µM
- TGI (786-0 renal): 13.7 µM
- TGI (PC-3 prostate): 15.8 µM
- TGI (LOX IMVI melanoma): 11.3 µM
- TGI (SK-OV-3 ovarian): 42.8 µM
- TGI (MALME-3M melanoma): 22.8 µM
- TGI (MDA-MB-435): 17.4 µM
- TGI (SK-MEL-5 melanoma): 16.5 µM
- TGI (RPMI-8226 leukemia): > 100 µM
- TGI (NCI-H23 lung): 19.5 µM
- TGI (EKVX NSCLC): 15.9 µM
- TGI (K-562 leukemia): > 100 µM
- TGI (UO-31 renal): 16 µM
- TGI (CCRF-CEM leukemia): > 100 µM
- TGI (SK-MEL-28 melanoma): 23 µM
- TGI (MDA-MB-231 breast): 19.8 µM
- TGI (NCI/ADR-RES ovarian): 10.6 µM
- TGI (UACC-62 melanoma): 4.61 µM
- TGI (A549 NSCLC): 23.8 µM
- TGI (SW-620 colon): 16.3 µM
- TGI (HOP-62 NSCLC): 22 µM
- TGI (UACC-257 melanoma): 21.3 µM
- TGI (SK-MEL-2 melanoma): 12.8 µM
- TGI (U251 CNS): 20.7 µM
- TGI (OVCAR-8 ovarian): 13.8 µM
- TGI (HT29 colon): 13.6 µM
- TGI (NCI-H460 lung): 15.9 µM
- TGI (HOP-92 NSCLC): 22.9 µM
- TGI (A498 renal): 39.5 µM
- TGI (SF-268 CNS): 18.3 µM
- TGI (HCT-116 colon): 8.34 µM
- TGI (SR leukemia): > 100 µM
- TGI (MOLT-4 leukemia): > 100 µM
- TGI (HCT-15 colon): 12.2 µM
- TGI (RXF 393 renal): 16.4 µM
- TGI (HS 578T breast): 29.4 µM
- TGI (DU-145 prostate): 13.4 µM
- TGI (SF-295 CNS): 19 µM
- TGI (TK-10 renal): 22.9 µM
- TGI (HCC-2998 colon): 22 µM
- TGI (SNB-19 CNS): 31.2 µM
- TGI (SNB-75 CNS): 42.2 µM
- TGI (KM12 colon): 17.3 µM
- TGI (T-47D breast): 21.1 µM
- TGI (SN12C renal): 17.9 µM
- TGI (ACHN renal): 7.96 µM

SMILES: COc1cc(C2S/C(=C/c3ccccc3)C(=O)N2c2cccc(Cl)c2)cc(OC)c1OC (stereo not drawn)
- TGI (NCI-H226 lung): > 100 µM
- TGI (COLO 205 colon): > 100 µM
- TGI (HL-60(TB) leukemia): > 100 µM
- TGI (SF-539 CNS): > 100 µM
- TGI (NCI-H522 lung): 41.7 µM
- TGI (IGROV1 ovarian): > 100 µM
- TGI (CAKI-1 renal): > 100 µM
- TGI (OVCAR-4 ovarian): > 100 µM
- TGI (OVCAR-5 ovarian): > 100 µM
- TGI (MDA-N): > 100 µM
- TGI (786-0 renal): > 100 µM
- TGI (PC-3 prostate): > 100 µM
- TGI (LOX IMVI melanoma): 55.1 µM
- TGI (SK-OV-3 ovarian): > 100 µM
- TGI (MDA-MB-435): 57.8 µM
- TGI (SK-MEL-5 melanoma): > 100 µM
- TGI (RPMI-8226 leukemia): > 100 µM
- TGI (NCI-H23 lung): > 100 µM
- TGI (EKVX NSCLC): > 100 µM
- TGI (K-562 leukemia): > 100 µM
- TGI (UO-31 renal): > 100 µM
- TGI (OVCAR-3 ovarian): > 100 µM
- TGI (CCRF-CEM leukemia): 73.4 µM
- TGI (SK-MEL-28 melanoma): > 100 µM
- TGI (MDA-MB-231 breast): > 100 µM
- TGI (NCI/ADR-RES ovarian): > 100 µM
- TGI (UACC-62 melanoma): > 100 µM
- TGI (A549 NSCLC): > 100 µM
- TGI (SW-620 colon): > 100 µM
- TGI (MCF7 breast): > 100 µM
- TGI (UACC-257 melanoma): 81.8 µM
- TGI (SK-MEL-2 melanoma): > 100 µM
- TGI (U251 CNS): > 100 µM
- TGI (M14 melanoma): > 100 µM
- TGI (OVCAR-8 ovarian): > 100 µM
- TGI (HT29 colon): > 100 µM
- TGI (NCI-H460 lung): > 100 µM
- TGI (HOP-92 NSCLC): > 100 µM
- TGI (A498 renal): > 100 µM
- TGI (SF-268 CNS): > 100 µM
- TGI (HCT-116 colon): > 100 µM
- TGI (SR leukemia): 83.3 µM
- TGI (MOLT-4 leukemia): > 100 µM
- TGI (HCT-15 colon): > 100 µM
- TGI (HS 578T breast): > 100 µM
- TGI (DU-145 prostate): 86.8 µM
- TGI (SF-295 CNS): > 100 µM
- TGI (TK-10 renal): > 100 µM
- TGI (HCC-2998 colon): > 100 µM
- TGI (SNB-19 CNS): > 100 µM
- TGI (KM12 colon): > 100 µM
- TGI (SN12C renal): > 100 µM
- TGI (BT-549 breast): 68.4 µM
- TGI (ACHN renal): > 100 µM
